In brackets after ≈: the same amount, converted by molar mass. Bounds are passed on as bounds.

The first test has as its system M. tuberculosis H37Ra. Nature of the test: MIC against M. tuberculosis H37Ra, micro broth dilution in microtiter plates.
Conditions: not given
Regarding `COc1ccc(NC(=O)c2ccc([N+](=O)[O-])o2)cc1Cl` [Compound 1], the “MIC against whole cells” value turned out to be 1.6 µg/mL (≈ 5.39 µM).

`CN(C(=O)c1ccc([N+](=O)[O-])o1)c1ccccc1` [Compound 41] had an MIC of 3.1 µg/mL (≈ 12.6 µM).

Still in this test, the particulars now being: Mycobacterium tuberculosis, H37RA.
The molecule `O=C(NCc1ccc(N2CCN(Cc3ccccc3)CC2)cc1)c1ccc([N+](=O)[O-])o1` [Compound 66, 5-Nitro-furan-2-carboxy1ic acid 4-(4-benzyl-piperazin-1-yl)-benzylamide] displayed an MIC of 0.006 µg/mL (≈ 0.0143 µM).

The same test, now with this note: Mycobacterium tuberculosis, H37RA, 168 h, read-out: TB MIC, Table 1; M. tuberculosis H37Ra, 7 days, MIC90 (>90% inhibition of growth).
In the case of `O=C(NC1CCCCC1)c1ccc([N+](=O)[O-])o1` [Compound 15, 5-Nitro-furan-2-carboxylic acid cyclohexylamide], the MIC was 3.1 µg/mL (≈ 13 µM).

Regarding `O=C(NC12CC3CC(CC(C3)C1)C2)c1ccc([N+](=O)[O-])o1` [Compound 16, 5-Nitro-furan-2-carboxylic acid adamantan-1-ylamide], the MIC was 3.1 µg/mL (≈ 10.7 µM).

Regarding `O=C(Nc1ccccc1)c1ccc([N+](=O)[O-])o1` [Compound 17, 5-Nitro-furan-2-carboxylic acid phenylamide], the MIC worked out at 0.8 µg/mL (≈ 3.45 µM).

As for `COc1ccc(CNC(=O)c2ccc([N+](=O)[O-])o2)cc1` [Compound 20, 5-Nitro-furan-2-carboxylic acid 4-methoxy-benzylamide], the MIC is 0.1 µg/mL (≈ 0.362 µM).

In the case of `O=C(NCc1ccccc1Cl)c1ccc([N+](=O)[O-])o1` [Compound 21, 5-Nitro-furan-2-carboxylic acid 2-chloro-benzylamide], the MIC turned out to be 1.6 µg/mL (≈ 5.7 µM).

As to `COc1cc(CNC(=O)c2ccc([N+](=O)[O-])o2)cc(OC)c1OC` [Compound 24, 5-Nitro-furan-2-carboxylic acid 3,4,5-trimethoxy-benzylamide], the MIC was 0.8 µg/mL (≈ 2.38 µM).

As for `O=C(NC1CCc2ccccc21)c1ccc([N+](=O)[O-])o1` (centres unmarked) [Compound 26, 5-Nitro-furan-2-carboxylic acid indan-1-ylamide], the MIC was determined as 3.1 µg/mL (≈ 11.4 µM).

With `O=C(NCCc1ccccc1)c1ccc([N+](=O)[O-])o1` [Compound 27, 5-Nitro-furan-2-carboxylic acid phenethyl-amide], the MIC was found to be 1.6 µg/mL (≈ 6.15 µM).

As for `COc1ccc(CNC(=O)c2ccc(Br)o2)cc1` [Compound 32, 5-Bromo-furan-2-carboxylic acid 4-methoxy-benzylamide], the MIC worked out at 200 µg/mL (≈ 645 µM).

For the molecule `COc1cccc(NC(=O)c2ccc(S(=O)(=O)O)o2)c1` [Compound 34, 5-(3-Methoxy-phenylcarbamoyl)-furan-2-sulfonic acid], the MIC was determined as 200 µg/mL (≈ 673 µM).

As to `O=C(Nc1cccc(O)c1)c1ccc([N+](=O)[O-])o1` [Compound 35, 5-Nitro-furan-2-carboxylic acid(3-hydroxy-phenyl)-amide], the MIC is 1.6 µg/mL (≈ 6.45 µM).

Regarding `COc1cccc(NC(=O)c2ccc([S+]([O-])c3ccccc3)o2)c1` (centres unmarked) [Compound 38, 5-Benzenesulfinyl-furan-2-carboxylic acid(3-methoxy-phenyl)-amide], the MIC came out at 6.25 µg/mL (≈ 18.3 µM).

On to `COc1cccc(NC(=O)c2ccc(S(=O)(=O)c3ccccc3)o2)c1` [Compound 39, 5-Benzenesulfonyl-furan-2-carboxylic acid(3-methoxy-phenyl)-amide], for which the MIC worked out at 6.25 µg/mL (≈ 17.5 µM).

Turning to `CCOC(=O)c1ccc(C(=O)Nc2cccc(OC)c2)o1` [Compound 40, 5-(3-Methoxy-phenylcarbamoyl)-furan-2-carboxylic acid ethyl ester], the MIC turned out to be 400 µg/mL (≈ 1380 µM).

`O=C(Nc1cnccn1)c1ccc([N+](=O)[O-])o1` [Compound 48, 5-Nitro-furan-2-carboxylic acid pyrazin-2-ylamide]: the MIC came to 6.25 µg/mL (≈ 26.7 µM).

Turning to `COc1ccccc1CNC(=O)c1ccc([N+](=O)[O-])o1` [Compound 52, 5-nitro-furan-2-carboxylic acid 2-methoxy-benzylamide], the MIC came out at 1.6 µg/mL (≈ 5.79 µM).

For `COc1cccc(CNC(=O)c2ccc([N+](=O)[O-])o2)c1OC` [Compound 53, 5-nitro-furan-2-carboxylic acid 2,3-dimethoxy-benzylamide], the MIC came to 1.2 µg/mL (≈ 3.92 µM).

Still in this test, the particulars now being: Mycobacterium tuberculosis, H37RA, Table 4; M. tuberculosis H37Ra, MIC90.
As for `O=C(Nc1ccc(N2CCOCC2)cc1)c1ccc([N+](=O)[O-])o1` [Compound 54, 5-Nitro-furan-2-carboxylic acid(4-morpholin-4-yl-phenyl)-amide], the MIC is 1.6 µg/mL (≈ 5.04 µM).

As for `CN1CCN(c2ccc(NC(=O)c3ccc([N+](=O)[O-])o3)cc2)CC1` [Compound 55, 5-Nitro-furan-2-carboxylic acid[4-(4-methyl-piperazin-1-yl)-phenyl]-amide], the MIC turned out to be 6.25 µg/mL (≈ 18.9 µM).

On to `O=C(Nc1ccc(N2CCN(Cc3ccccc3)CC2)cc1)c1ccc([N+](=O)[O-])o1` [Compound 56, 5-Nitro-furan-2-carboxylic acid[4-(4-benzyl-piperazin-1-yl)-phenyl]-amide], for which the lowest concentration to inhibit growth (MIC) was 0.8 µg/mL (≈ 1.97 µM).

As for `O=C(Nc1ccc(N2CCC(Cc3ccccc3)CC2)cc1)c1ccc([N+](=O)[O-])o1` [Compound 57, 5-Nitro-furan-2-carboxylic acid[4-(4-benzyl-piperidin-1-y1)-phenyl]-amide], the MIC stood at 3.1 µg/mL (≈ 7.65 µM).

In turn, `O=C(Nc1ccc(N2CCN(c3ccccn3)CC2)cc1)c1ccc([N+](=O)[O-])o1` [Compound 58, 5-Nitro-furan-2-carboxylic acid. [4-(4-pyridin-2-yl-piperazin-1-yl)-phenyl]-amide] had an MIC of 0.4 to 0.8 µg/mL (≈ 1.02 to 2.03 µM).

Turning to `O=C(Nc1cccc(N2CCOCC2)c1)c1ccc([N+](=O)[O-])o1` [Compound 59, 5-Nitro-furan-2-carboxylic acid(3-morpholin-4-yl-phenyl)-amide], the MIC amounted to 3.1 µg/mL (≈ 9.77 µM).

For `CN1CCN(c2cccc(NC(=O)c3ccc([N+](=O)[O-])o3)c2)CC1` [Compound 60, 5-Nitro-furan-2-carboxylic acid[3-(4-methyl-piperazin-1-yl)-phenyl]-amide], the MIC worked out at 12.5 µg/mL (≈ 37.8 µM).

Turning to `O=C(Nc1cccc(N2CCN(Cc3ccccc3)CC2)c1)c1ccc([N+](=O)[O-])o1` [Compound 61, 5-Nitro-furan-2-carboxylic acid[3-(4-benzyl-piperazin-1-yl)-phenyl]-amide], the MIC was 12.5 µg/mL (≈ 30.8 µM).

Turning to `O=C(Nc1cccc(N2CCC(Cc3ccccc3)CC2)c1)c1ccc([N+](=O)[O-])o1` [Compound 62, 5-Nitro-furan-2-carboxylic acid[3-(4-benzyl-piperidin-1-yl)-phenyl]-amide], the MIC was found to be 12.5 µg/mL (≈ 30.8 µM).

For `O=C(Nc1cccc(N2CCN(c3ccccn3)CC2)c1)c1ccc([N+](=O)[O-])o1` [Compound 63, 5-Nitro-furan-2-carboxylic acid[3-(4-pyridin-2-yl-piperazin-1-yl)-phenyl]-amide], it took 1.6 µg/mL (≈ 4.07 µM) to inhibit growth (MIC).

Molecule `O=C(NCc1ccc(N2CCOCC2)cc1)c1ccc([N+](=O)[O-])o1` [Compound 64, 5-Nitro-furan-2-carboxylic acid 4-morpholin-4-yl-benzylamide] returned an MIC of 0.1 µg/mL (≈ 0.302 µM).

The molecule `O=C(NCc1ccc(N2CCN(Cc3ccccc3)CC2)cc1)c1ccc([N+](=O)[O-])o1` [Compound 66, 5-Nitro-furan-2-carboxy1ic acid 4-(4-benzyl-piperazin-1-yl)-benzylamide] came in with an MIC of 0.0062 µg/mL (≈ 0.0147 µM).

In turn, `O=C(NCc1ccc(N2CCC(Cc3ccccc3)CC2)cc1)c1ccc([N+](=O)[O-])o1` [Compound 67, 5-Nitro-furan-2-carboxylic acid 4-(4-benzyl-piperidin-1-yl)-benzylamide] registered an MIC below 0.1 µg/mL.

In turn, `CN1CCN(c2cccc(CNC(=O)c3ccc([N+](=O)[O-])o3)c2)CC1` [Compound 68, 5-Nitro-furan-2-carboxylic acid 3-(4-methyl-piperazin-1-yl)-benzylamide] displayed an MIC of 3.1 µg/mL (≈ 9 µM).

The test is the same for the next values; noted with them: against H37Ra; in words.
As to `O=C(NCc1ccc(N2CCN(Cc3ccccc3)CC2)cc1)c1ccc([N+](=O)[O-])o1` [Compound 66, 5-Nitro-furan-2-carboxy1ic acid 4-(4-benzyl-piperazin-1-yl)-benzylamide], the “MIC activity compared with classical TB drugs (FIG. 1)” value is on record as “more active than isoniazid”.

The record behind these values is patent publication US20050026968A1, “Heterocyclic amides with anti-tuberculosis activity” (priority 2003, published 2005).
